Test results taken from patent US8329716B2, “Hetaryloxy-substituted phenylamino pyrimidines as Rho kinase inhibitors” (Bayer Intellectual Property GmbH, priority 2004, dated 2012).

These molecules were tested on isolated saphenous artery of rabbits (assay: Vessel-relaxing action in vitro, phenylephrine-induced contractions of isolated saphenous artery rings). Conditions: Oryctolagus cuniculus; concentration reducing phenylephrine-induced contraction of rabbit saphenous artery rings by 50% of control.
Description: The inhibition of the enzyme is investigated in an in vitro assay with recombinant Rho kinase II. The vessel-relaxing action is determined using phenylephrine-induced contractions of isolated rings of the saphenous artery of rabbits.
Vessel-Relaxing Action In Vitro
Individual 3-mm-wide rings of the isolated saphenous artery of rabbits are introduced into 5 ml organ baths with Krebs-Henseleit solution (37° C., gassed with carbogen). The vessel tone is monitored isometrically and registered. Contractions are induced by addition of […] of phenylephrine/ml, which is washed out again after 4 min. After a number of control cycles, the rings are preincubated with the substance to be examined, with the dosage being increased for each further cycle, and the subsequent contraction is compared to the intensity of the last control contraction.

Which IC50 does the source give for Nc1nc(Nc2ccc(Oc3ccnc4[nH]cc(Cl)c34)c(F)c2)cc(C(F)(F)F)n1 [Example 9, N^4-{4-[(3-Chloro-1H-pyrrolo[2,3-b]pyridin-4-yl)oxy]-3-fluorophenyl}-6-(trifluoromethyl)pyrimidine-2,4-diamine] here?
The IC50 was 0.045 µM.

How did the IC50 turn out when N#Cc1c[nH]c2nccc(Oc3ccc(Nc4cc(C(F)(F)F)nc(N)n4)cc3F)c12 [Example 18, 4-(4-{[2-Amino-6-(trifluoromethyl)pyrimidin-4-yl]amino}-2-fluorophenoxy)-1H-pyrrolo[2,3-b]pyridin-3-carbonitrile] was run?
Its IC50 is 0.019 µM.

Cc1c[nH]c2nccc(Oc3c(F)cc(Nc4cc(Cl)nc(N)n4)cc3F)c12 [Example 1, 6-Chloro-N^4-{3,5-difluoro-4-[(3-methyl-1H-pyrrolo[2,3-b]pyridin-4-yl)oxy]phenyl}pyrimidine-2,4-diamine] was tested. Which IC50 did it give?
The IC50 was 0.067 µM.
